Columns and labels:
Type in all cases: in vivo
[1] = test system: WT female mice on the C57B1/6 genetic background; assay: Example 3: efficacy of GLP-1 receptor agonists administered once per day (body weight, blood glucose, pancreas, small bowel, colon)
Protocol: All mice used in the study were 10-week old WT female mice on the C57B1/6 genetic background. The mice were maintained on regular drinking water and a standard rodent chow diet.
All injections were given once per day, and were administered ip using a 31 g insulin syringe with an 8 mm long needle in a final volume that ranged between 84-125 μl. The body weight and food intake were determined daily. Non-fasting blood glucose levels were measured using a hand-held glucometer on day 1 (prior to the first injection), day 8, and day 15 (day of sacrifice). […] The entire pancreas was removed and weighed. The entire small bowel was removed and then suspended vertically with a 1 g weight attached to the distal portion of the small bowel (to provide uniform tension). Small bowel length was determined using a vertical ruler and then flushed with ice-cold PBS, blotted dry and weighed. The entire colon was removed and colon length was determined by measuring with a ruler placed on a horizontal surface. The colon was then flushed with ice-cold PBS, blotted dry and weighed. All statistical analyses were done by one-way ANOVA with Bonferroni's Multiple Comparison Post-Test using GraphPad Prism software (version 4), n=4 mice/group.

[2] = test system: female wild-type mice on the Balb/c genetic background; assay: Example 5: low dose Liraglutide (30 or 50 μg/kg BID s.c., one week), large intestine size and body weight, Balb/c mice; details: Liraglutide 30 μg/kg BID s.c. 7 days vs PBS
Description: FIGS. 18A-18D illustrate that doses of Liraglutide lower than those that have shown glucose lowering or cardioprotective effects in rodents [Rolin B, et al, 2002; Noyan-Ashraf M H, et al, 2009; Porter D W et al, 2010; Irwin N et al, 2010; and Gault V A et al, 2011] are still able to increase large intestine size (large intestine weight and length) in wild-type mice compared to PBS-treated mice. FIGS. 18A-18D also illustrate that Liraglutide treatment can increase large intestine size (large intestine length and weight) in wild-type mice on the Balb/c genetic background compared to control-treated mice. All mice were 9-week old female wild-type mice on the Balb/c genetic background. All mice were maintained on a standard rodent chow diet and normal drinking water. Mice were given s.c. injections of either phosphate buffered saline (PBS), 30 μg/kg of Liraglutide (LG) BID, or 50 μg/kg of LG BID for one week. Injections were administered using a 31 g insulin syringe with an 8 mm long needle and in a final volume that ranged between 60-120 μl. Body weights and food intake were determined daily. […] The large intestine was removed and its length was determined by measuring with a ruler placed on a horizontal surface. Luminal contents were removed from the large intestine by flushing with ice-cold PBS using a 60 cc syringe attached to a p200 pipette tip. Mesenteric fat was dissected away from the large intestine. The large intestine was blotted to remove excess PBS and then weighed. Statistical analyses were done by one-way ANOVA with Bonferroni's Multiple Comparison Post-Test using GraphPad Prism software (version 4).
All mice were 9-week old female wild-type mice on the Balb/c genetic background. All mice were maintained on a standard rodent chow diet and normal drinking water. Mice were given s.c. injections of either phosphate buffered saline (PBS), 30 μg/kg of Liraglutide (LG) BID, or 50 μg/kg of LG BID for one week. […] Body weights and food intake were determined daily. […]

[3] = test system: wild-type female C57B1/6 mice on regular drinking water or 3% DSS; assay: Example 5: low dose Liraglutide (25 or 50 μg/kg BID s.c., one week), small intestine size, body weight, blood glucose; details: C57B1/6, regular water or 3% DSS
Protocol: All mice were 10-week old wild-type female mice on the C57B1/6 genetic background. Mice were maintained on a standard rodent chow diet and either regular drinking water or water supplemented with 3% DSS for a total of one week. Mice were given subcutaneous injections of either phosphate buffered saline (PBS), 25 μg/kg of Liraglutide (LG) BID, or 50 μg/kg of LG BID for one week. PBS or LG injections commenced at the same time that mice were started on normal drinking water or water supplemented with 3% DSS. Injections were administered using a 31 g insulin syringe with an 8 mm long needle and in a final volume that ranged between 85-110 μl. Body weights, food intake, and water intake were determined daily. […] Small intestines were removed and then suspended vertically with a 1 g weight attached to the distal portion of the small intestine (to provide uniform tension). Small intestine length was determined using a vertical ruler. Luminal contents were removed from the small bowel by flushing with ice-cold PBS using a 60 cc syringe attached to a p200 pipette tip. Mesenteric fat and pancreatic tissue were dissected away from the small intestine. The small intestine was blotted to remove excess PBS and then weighed. Statistical analyses were done by one-way ANOVA with Bonferroni's Multiple Comparison Post-Test using GraphPad Prism software (version 4).
All mice were 10-week old female wild-type mice on the C57B1/6 genetic background. Mice were maintained on a standard rodent chow diet and either regular drinking water or water supplemented with 3% DSS for a total of one week. Mice were given s.c. injections of either phosphate buffered saline (PBS), 25 μg/kg of Liraglutide (LG) BID, or 50 μg/kg of LG BID for one week. PBS or LG injections commenced at the same time that mice were started on normal drinking water or water supplemented with 3% DSS. Injections were administered using a 31 g insulin syringe with an 8 mm long needle and in a final volume that ranged between 85-110 μl. Body weights, food intake, and water intake were determined daily. Blood glucose levels were measured on the first day of the study and just prior to sacrifice. Statistical analyses were done by one-way ANOVA with Bonferroni's Multiple Comparison Post-Test using GraphPad Prism software (version 4). n=5 mice/group.

[4] = Liraglutide once a day ip for two weeks (LG qd 2, 75 μg/kg) vs PBS
[5] = Liraglutide 25 μg/kg BID s.c. 7 days vs PBS, listed as 3% DSS/Liguratide
[6] = Liraglutide 25 μg/kg BID s.c. 7 days vs PBS, listed as liraglutide
[7] = Liraglutide 50 μg/kg BID s.c. 7 days vs PBS
[8] = Liraglutide 50 μg/kg BID s.c. 7 days vs PBS, listed as 3% DSS/Liguratide
[9] = Liraglutide 50 μg/kg BID s.c. 7 days vs PBS, listed as liraglutide

CCCCCCCCCCCCCCCC(=O)N[C@@H](CCC(=O)NCCCC[C@H](NC(=O)[C@H](C)NC(=O)[C@H](C)NC(=O)[C@H](CCC(N)=O)NC(=O)CNC(=O)[C@H](CCC(=O)O)NC(=O)[C@H](CC(C)C)NC(=O)[C@H](Cc1ccc(O)cc1)NC(=O)[C@H](CO)NC(=O)[C@H](CO)NC(=O)[C@@H](NC(=O)[C@H](CC(=O)O)NC(=O)[C@H](CO)NC(=O)[C@@H](NC(=O)[C@H](Cc1ccccc1)NC(=O)[C@@H](NC(=O)CNC(=O)[C@H](CCC(=O)O)NC(=O)[C@H](C)NC(=O)[C@@H](N)Cc1cnc[nH]1)[C@@H](C)O)[C@@H](C)O)C(C)C)C(=O)N[C@@H](CCC(=O)O)C(=O)N[C@@H](Cc1ccccc1)C(=O)N[C@H](C(=O)N[C@@H](C)C(=O)N[C@@H](Cc1c[nH]c2ccccc12)C(=O)N[C@@H](CC(C)C)C(=O)N[C@H](C(=O)N[C@@H](CCCNC(=N)N)C(=O)NCC(=O)N[C@@H](CCCNC(=N)N)C(=O)NCC(=O)O)C(C)C)[C@@H](C)CC)C(=O)O [Liraglutide]
non-fasting blood glucose levels ([1]; Liraglutide 75 μg/kg ip once a day for one week vs PBS): does not alter
non-fasting blood glucose levels ([1]; Liraglutide 75 μg/kg ip once a day for two weeks vs PBS): significantly increased
body weight ([1]; Liraglutide 75 μg/kg ip once per day for 7 days (LG qd 1) vs PBS): do not have a significant effect
body weight ([1]; Liraglutide 75 μg/kg ip once per day for 14 days (LG qd 2) vs PBS): do not have a significant effect
pancreas weight per gram of body weight [1, 4]: significantly increases
total pancreas weight [1, 4]: significantly increases
decrease body weight (final body weight) [2]: no difference
decrease body weight (final body weight) ([2]; listed as 3% DSS/Liguratide): No
decrease body weight (final body weight) ([2]; listed as liraglutide): no difference
increase blood glucose (blood glucose level) ([3]; Liraglutide 25 μg/kg BID s.c. 7 days vs PBS): no difference
decrease body weight (final body weight) [3, 5]: No
increase blood glucose (blood glucose level) [3, 5]: No
decrease body weight (final body weight) [3, 6]: no difference
increase blood glucose (blood glucose level) [3, 6]: no difference
decrease body weight (final body weight) [3, 7]: no difference
increase blood glucose (blood glucose level) [3, 7]: no difference
decrease body weight (final body weight) [3, 8]: No
increase blood glucose (blood glucose level) [3, 8]: No
decrease body weight (final body weight) [3, 9]: no difference
increase blood glucose (blood glucose level) [3, 9]: no difference

Reference: patent US9168288B2, “Methods for treating disorders of the gastrointestinal tract using a GLP-1 agonist” (Mount Sinai Hospital, priority 2010, dated 2015)
